From publication PMC11815855, “Exploring the Structure–Activity Relationships of Albumin-Targeted Picoplatin-Based Platinum(IV) Prodrugs” (Inorganic Chemistry, 2025)

Assays:
[1] = test system: CT26 tumors; test: Anticancer activity in vivo, CT26-bearing Balb/c mice; details: i.v. on days 3 and 10, dose equimolar to 20 mg/kg picoplatin
Description: Ten-week-old Balb/c mice were purchased from Envigo Laboratories (San Pietro al Natisone, Italy). […] Animals were controlled for distress development every day, and tumor size was assessed regularly by caliper measurement. Tumor volume was calculated using the formula: (length × width^2)/2.
CT26 cells (5 × 10^5 in serum-free medium) were injected subcutaneously into the right flank of male Balb/c mice. Therapy was started when tumor nodules were palpable (day 3). […] Mice were sacrificed by cervical dislocation in the case of a tumor length >20 mm, tumor ulceration, or other signs for distress.

[2] = Serum pharmacokinetics and tumor/organ distribution (Pt by ICP-MS) in CT26-bearing Balb/c mice; type: in vivo; details: single i.v. dose equimolar to 20 mg/kg picoplatin
Description: CT-26 cells (5 × 10^5 cells in 50 μL of serum-free medium) were subcutaneously injected into the right flank of male Balb/c mice. […]. […] and the three maleimide-containing platinum(IV) complexes were dissolved in 30% PEG400-containing 0.9% NaCl and PBS (Cytiva, USA), respectively. […]. After a 10 min clotting period of the blood at RT, the serum was separated by centrifugation (900 g, 10 min, repeated twice). Tumor and organ accumulation of the drug was assessed at 5 and 24 h postadministration (2 animals per time point). Mice were euthanized via cervical dislocation, and their tumors and organs were excised. All collected samples were stored at −20 °C until further processing for Pt concentration analysis by ICP-MS. […] Approximately 15–30 mg of tissue (gravimetrically measured) was digested with 2 mL of 20% nitric acid and 100 μL of H2O2 in an open-vessel graphite digestion system (Labter, ODLAB; AHF Analysentechnik AG, Germany), using PFA vials and lids. […] Quantification of total Pt content was performed on a quadrupole-based ICP-MS instrument (Agilent 7800, Agilent Technologies, Tokyo, Japan), equipped with an Agilent SPS 4 autosampler and a MicroMist nebulizer. […] Rh was used as the internal standard for Pt quantification. […]

CC(=O)[O][Pt]([Cl])([Cl])[O]C(=O)NCCN1C(=O)C=CC1=O.Cc1ccccn1.N [Pico-Mal]
impact on tumor growth [1]: inactive
platinum levels in the kidneys [2]: higher
